Test results published in ChEMBL document CHEMBL4602617, “Discovery and optimization of heteroaryl piperazines as potent and selective PI3Kδ inhibitors” (Bioorg Med Chem Lett, 2020).

Experiments:
[1] = biological target: Adenosine receptor A2a (Homo sapiens) (UniProt P29274); test: Displacement of [3H]CGS-21680 from full-length recombinant human A2A receptor expressed in HEK293 cells at 10 uM measured after 90 mins by scintillation counting method relative to control; format: cell-based
[2] = biological target: Proto-oncogene tyrosine-protein kinase receptor Ret (Homo sapiens, UniProt P07949); test: Inhibition of recombinant human GST-tagged RET cytoplasmic domain expressed in baculovirus expression system using tyr02 peptide as substrate incubated for 60 mins in presence of ATP by Z'-LYTE assay
[3] = biological target: Tyrosine-protein kinase ZAP-70 (Homo sapiens, UniProt P43403); test: Inhibition of recombinant full length human His-tagged ZAP70 cytoplasmic domain expressed in baculovirus expression system using fluorophore-labeled tyrosine-07 peptide as substrate incubated for 60 mins in presence of ATP by Z'-LYTE assay
Ephrin type-A receptor 4 = Ephrin type-A receptor 4 (Homo sapiens, UniProt P54764); test: Inhibition of recombinant human GST-tagged EPHA4 cytoplasmic domain expressed in baculovirus expression system using tyrosine-02 peptide as substrate incubated for 60 mins in presence of ATP by Z'-Lyte assay
[4] = biological target: Muscarinic acetylcholine receptor M3 (Homo sapiens) (UniProt P20309); test: Displacement of [3H]N-Methylscopolamine from full length human recombinant Muscarinic M3 receptor expressed in CHOK1 cells at 10 uM measured after 120 mins by radiometric scintillation analysis relative to control; format: cell-based; conditions: CHO-K1
[5] = biological target: Calcium/calmodulin-dependent protein kinase type II subunit beta (Homo sapiens, UniProt Q13554); test: Inhibition of recombinant full length human His-tagged CAMK2beta expressed in baculovirus expression system using serine/threonine-17 peptide as substrate incubated for 60 mins in presence of ATP by Z'-LYTE assay
[6] = biological target: Protein kinase C zeta type (Homo sapiens, UniProt Q05513); test: Inhibition of recombinant full length human PKCzeta expressed in baculovirus expression system using serine/threonine-7 peptide as substrate incubated for 60 mins in presence of ATP by Z'-LYTE assay
[7] = biological target: Ribosomal protein S6 kinase alpha-5 (Homo sapiens, UniProt O75582); test: Inhibition of recombinant full length human GST-tagged RPS6KA5 expressed in baculovirus expression system using ser/Thr01 peptide as substrate incubated for 60 mins in presence of ATP by Z'-LYTE assay
[8] = biological target: Androgen receptor (Homo sapiens) (UniProt P10275); test: Displacement of [3H]methyltrienolone from human LNCAP cells derived androgen receptor at 10 uM measured after 20 hrs by scintillation counting method relative to control; format: cell-based
[9] = biological target: Rho-associated protein kinase 1 (Homo sapiens, UniProt Q13464); test: Inhibition of recombinant human GST-tagged ROCK1 catalytic domain expressed in baculovirus expression system using serine/threonine-7 peptide as substrate incubated for 60 mins in presence of ATP by Z'-LYTE assay
[10] = biological target: Alpha-1D adrenergic receptor (Homo sapiens) (UniProt P25100); test: Displacement of [3H]prazosin from recombinant full length human alpha1d adrenergic receptor expressed in HEK293 cell membranes at 10 uM measured after 60 mins by scintillation counting method relative to control
[11] = biological target: MAP/microtubule affinity-regulating kinase 4 (Homo sapiens, UniProt Q96L34); test: Inhibition of recombinant full length human GST-tagged MARK4 expressed in baculovirus expression system using serine/threonine-25 peptide as substrate incubated for 60 mins in presence of ATP by Z'-LYTE assay
Ephrin type-B receptor 1 = Ephrin type-B receptor 1 (Homo sapiens, UniProt P54762); test: Inhibition of recombinant human GST-tagged EPHB1 catalytic domain expressed in baculovirus expression system using tyrosine-2 peptide as substrate incubated for 60 mins in presence of ATP by Z'-LYTE assay
[12] = biological target: Casein kinase I isoform alpha (Homo sapiens, UniProt P48729); test: Inhibition of recombinant full length human GST-tagged CSNK1A1 expressed in baculovirus expression system using fluorophore-labeled serine/threonine-11 peptide as substrate incubated for 60 mins in presence of ATP by Z'-LYTE assay
[13] = biological target: Dual specificity tyrosine-phosphorylation-regulated kinase 3 (Homo sapiens, UniProt O43781); test: Inhibition of recombinant full length human GST-tagged DYRK3 expressed in baculovirus expression system using serine/threonine-9 peptide as substrate incubated for 60 mins in presence of ATP by Z'-LYTE assay
[14] = biological target: Alpha-1B adrenergic receptor (Rattus norvegicus) (UniProt P15823); test: Displacement of [3H]prazosin from alpha1b adrenergic receptor in Wistar rat liver membranes at 10 uM measured after 60 mins by scintillation counting method relative to control; format: cell membranes; conditions: Membrane
[15] = biological target: Platelet-derived growth factor receptor alpha (Homo sapiens, UniProt P16234, V561D); test: Inhibition of recombinant human GST-tagged PDGFRalpha V561D mutant cytoplasmic domain expressed in baculovirus expression system using tyrosine-4 peptide as substrate incubated for 60 mins in presence of ATP by Z'-LYTE assay
[16] = biological target: Tyrosine-protein kinase BTK (Homo sapiens, UniProt Q06187); test: Inhibition of recombinant full length human His-tagged BTK expressed in baculovirus expression system using tyrosine-2 peptide as substrate incubated for 60 mins in presence of ATP by Z'-LYTE assay
[17] = biological target: Substance-P receptor (Homo sapiens) (UniProt P25103); test: Displacement of [3H]substance P from recombinant full length human NK1R expressed in CHO cells at 10 uM after 90 mins by radiometric scintillation analysis relative to control; format: cell-based
[18] = biological target: Serine/threonine-protein kinase Sgk3 (Homo sapiens, UniProt Q96BR1); test: Inhibition of recombinant human GST-tagged SGK3 catalytic domain (87 to 496 residues) expressed in baculovirus expression system using serine/threonine-6 peptide as substrate incubated for 60 mins in presence of ATP by Z'-LYTE assay
[19] = biological target: RAC-gamma serine/threonine-protein kinase (Homo sapiens, UniProt Q9Y243); test: Inhibition of recombinant full length human His-tagged AKT3 expressed in baculovirus expression system using Ser/Thr-06 peptide as substrate incubated for 60 mins in presence of ATP by Z'-LYTE assay
[20] = biological target: Cyclin-dependent kinase 5/CDK5 activator 1 (Homo sapiens, UniProt Q00535); test: Inhibition of recombinant full length human GST/His-tagged CDK5/p25 expressed in baculovirus expression system using serine/threonine-12 peptide as substrate incubated for 60 mins in presence of ATP by Z'-LYTE assay
[21] = biological target: Fibroblast growth factor receptor 4 (Homo sapiens, UniProt P22455); test: Inhibition of recombinant human His-tagged FGFR4 catalytic domain ([…]) expressed in baculovirus expression system using tyrosine-4 peptide as substrate incubated for 60 mins in presence of ATP by Z'-LYTE assay
Rattus norvegicus = organism: Rattus norvegicus; test: Inhibition of rat P2Y receptor at 10 uM relative to control
[22] = biological target: Tyrosine-protein kinase JAK3 (Homo sapiens, UniProt P52333); test: Inhibition of recombinant human GST-tagged JAK3 catalytic domain (781 to 1124 residues) expressed in baculovirus expression system using tyrosine-6 peptide as substrate incubated for 60 mins in presence of ATP by Z'-LYTE assay
Tyrosine-protein kinase JAK3, sequence (P52333 whole entry, the tested form may be a part): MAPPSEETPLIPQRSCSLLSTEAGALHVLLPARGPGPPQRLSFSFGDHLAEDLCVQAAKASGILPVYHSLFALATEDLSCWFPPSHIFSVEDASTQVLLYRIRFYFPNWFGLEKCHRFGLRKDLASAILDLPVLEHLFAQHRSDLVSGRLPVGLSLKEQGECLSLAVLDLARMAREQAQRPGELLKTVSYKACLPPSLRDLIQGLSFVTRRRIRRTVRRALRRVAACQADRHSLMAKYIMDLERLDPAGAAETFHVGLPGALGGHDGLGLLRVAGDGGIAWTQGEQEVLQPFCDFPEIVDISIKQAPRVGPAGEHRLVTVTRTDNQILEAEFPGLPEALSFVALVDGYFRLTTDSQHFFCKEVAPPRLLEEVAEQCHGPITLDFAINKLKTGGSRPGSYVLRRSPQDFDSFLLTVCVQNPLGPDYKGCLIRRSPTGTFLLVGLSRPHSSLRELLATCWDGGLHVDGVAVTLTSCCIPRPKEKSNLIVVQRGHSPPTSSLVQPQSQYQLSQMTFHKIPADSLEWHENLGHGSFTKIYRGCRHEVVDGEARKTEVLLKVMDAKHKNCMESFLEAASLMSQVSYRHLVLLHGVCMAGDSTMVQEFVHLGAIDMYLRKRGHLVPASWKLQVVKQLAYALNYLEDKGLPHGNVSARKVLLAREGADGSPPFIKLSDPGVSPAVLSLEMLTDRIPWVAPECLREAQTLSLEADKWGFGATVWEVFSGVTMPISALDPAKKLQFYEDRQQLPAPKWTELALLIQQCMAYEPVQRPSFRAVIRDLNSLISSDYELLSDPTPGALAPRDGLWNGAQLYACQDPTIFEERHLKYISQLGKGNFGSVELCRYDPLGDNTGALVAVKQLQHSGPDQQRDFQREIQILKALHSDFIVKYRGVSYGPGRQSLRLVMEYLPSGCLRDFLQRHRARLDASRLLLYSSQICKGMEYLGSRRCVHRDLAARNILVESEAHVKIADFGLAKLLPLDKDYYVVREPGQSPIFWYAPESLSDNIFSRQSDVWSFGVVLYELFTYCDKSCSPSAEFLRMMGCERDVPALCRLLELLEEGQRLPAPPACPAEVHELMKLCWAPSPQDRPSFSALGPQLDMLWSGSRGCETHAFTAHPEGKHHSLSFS

Alpha-1B adrenergic receptor (Rattus norvegicus), sequence (P15823 whole entry, the tested form may be a part): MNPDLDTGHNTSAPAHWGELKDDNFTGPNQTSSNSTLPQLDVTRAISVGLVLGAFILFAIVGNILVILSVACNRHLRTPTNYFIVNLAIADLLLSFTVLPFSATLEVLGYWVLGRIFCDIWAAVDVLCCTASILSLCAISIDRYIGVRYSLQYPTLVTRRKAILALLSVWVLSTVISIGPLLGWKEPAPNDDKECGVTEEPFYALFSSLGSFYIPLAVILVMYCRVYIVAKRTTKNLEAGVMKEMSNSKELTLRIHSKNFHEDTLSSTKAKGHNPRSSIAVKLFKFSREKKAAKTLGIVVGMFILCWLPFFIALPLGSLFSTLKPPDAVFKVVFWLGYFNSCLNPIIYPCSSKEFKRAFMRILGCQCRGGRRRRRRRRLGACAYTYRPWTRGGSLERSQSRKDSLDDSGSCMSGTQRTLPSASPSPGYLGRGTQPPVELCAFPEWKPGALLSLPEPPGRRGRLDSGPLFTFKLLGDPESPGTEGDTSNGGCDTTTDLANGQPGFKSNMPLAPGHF
Substance-P receptor (Homo sapiens), sequence (P25103 whole entry, the tested form may be a part): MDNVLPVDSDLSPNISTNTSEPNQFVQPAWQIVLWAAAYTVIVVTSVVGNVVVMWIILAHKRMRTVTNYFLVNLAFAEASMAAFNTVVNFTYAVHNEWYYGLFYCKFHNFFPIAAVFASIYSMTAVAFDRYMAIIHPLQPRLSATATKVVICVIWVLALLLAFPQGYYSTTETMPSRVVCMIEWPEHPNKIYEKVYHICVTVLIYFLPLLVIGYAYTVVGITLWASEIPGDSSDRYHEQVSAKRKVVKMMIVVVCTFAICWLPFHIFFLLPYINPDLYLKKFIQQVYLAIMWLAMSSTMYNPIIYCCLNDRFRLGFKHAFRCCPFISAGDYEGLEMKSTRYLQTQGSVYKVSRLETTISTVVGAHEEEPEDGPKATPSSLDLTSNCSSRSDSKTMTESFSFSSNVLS
Ephrin type-B receptor 1, sequence (P54762 whole entry, the tested form may be a part, canonical isoform): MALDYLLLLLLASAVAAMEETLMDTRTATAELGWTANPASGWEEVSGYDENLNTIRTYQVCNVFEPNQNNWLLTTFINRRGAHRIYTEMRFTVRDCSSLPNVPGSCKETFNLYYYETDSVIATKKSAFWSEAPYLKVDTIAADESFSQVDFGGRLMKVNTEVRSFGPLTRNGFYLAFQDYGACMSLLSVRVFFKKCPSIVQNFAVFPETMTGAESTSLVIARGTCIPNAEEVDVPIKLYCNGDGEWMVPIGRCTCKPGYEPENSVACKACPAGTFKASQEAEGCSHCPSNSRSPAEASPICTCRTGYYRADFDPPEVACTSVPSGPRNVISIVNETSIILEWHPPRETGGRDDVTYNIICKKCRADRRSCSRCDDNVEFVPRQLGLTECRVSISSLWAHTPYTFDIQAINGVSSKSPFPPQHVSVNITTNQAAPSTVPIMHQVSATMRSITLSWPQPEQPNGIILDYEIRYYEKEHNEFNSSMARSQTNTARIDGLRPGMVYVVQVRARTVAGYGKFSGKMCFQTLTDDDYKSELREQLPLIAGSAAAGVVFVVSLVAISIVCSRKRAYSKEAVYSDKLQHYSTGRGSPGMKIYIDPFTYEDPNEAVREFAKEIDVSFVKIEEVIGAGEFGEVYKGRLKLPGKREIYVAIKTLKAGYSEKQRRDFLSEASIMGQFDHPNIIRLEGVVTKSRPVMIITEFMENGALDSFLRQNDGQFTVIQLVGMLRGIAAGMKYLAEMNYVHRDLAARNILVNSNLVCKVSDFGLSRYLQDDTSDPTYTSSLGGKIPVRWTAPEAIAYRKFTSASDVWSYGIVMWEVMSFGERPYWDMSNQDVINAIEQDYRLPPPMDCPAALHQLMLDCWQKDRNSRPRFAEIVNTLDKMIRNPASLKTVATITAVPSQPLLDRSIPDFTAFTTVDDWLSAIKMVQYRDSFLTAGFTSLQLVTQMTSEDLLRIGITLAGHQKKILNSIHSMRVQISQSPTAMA
Muscarinic acetylcholine receptor M3 (Homo sapiens), sequence (P20309 whole entry, looked up): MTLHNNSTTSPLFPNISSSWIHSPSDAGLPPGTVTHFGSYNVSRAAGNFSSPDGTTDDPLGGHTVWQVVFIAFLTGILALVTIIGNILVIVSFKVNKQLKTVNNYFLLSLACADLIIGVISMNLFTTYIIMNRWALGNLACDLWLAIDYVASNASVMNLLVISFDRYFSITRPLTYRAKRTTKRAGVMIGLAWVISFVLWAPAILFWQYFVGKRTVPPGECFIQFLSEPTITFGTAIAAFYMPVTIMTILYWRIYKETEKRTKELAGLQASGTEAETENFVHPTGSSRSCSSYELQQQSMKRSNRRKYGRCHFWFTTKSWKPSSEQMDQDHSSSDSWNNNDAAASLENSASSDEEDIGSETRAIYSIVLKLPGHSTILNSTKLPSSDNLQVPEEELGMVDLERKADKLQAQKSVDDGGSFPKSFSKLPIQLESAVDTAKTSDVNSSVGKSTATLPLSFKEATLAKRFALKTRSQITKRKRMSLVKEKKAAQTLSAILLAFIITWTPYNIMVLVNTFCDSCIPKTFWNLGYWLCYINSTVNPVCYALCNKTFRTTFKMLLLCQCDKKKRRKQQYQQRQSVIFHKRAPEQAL
Proto-oncogene tyrosine-protein kinase receptor Ret, sequence (P07949 whole entry, the tested form may be a part): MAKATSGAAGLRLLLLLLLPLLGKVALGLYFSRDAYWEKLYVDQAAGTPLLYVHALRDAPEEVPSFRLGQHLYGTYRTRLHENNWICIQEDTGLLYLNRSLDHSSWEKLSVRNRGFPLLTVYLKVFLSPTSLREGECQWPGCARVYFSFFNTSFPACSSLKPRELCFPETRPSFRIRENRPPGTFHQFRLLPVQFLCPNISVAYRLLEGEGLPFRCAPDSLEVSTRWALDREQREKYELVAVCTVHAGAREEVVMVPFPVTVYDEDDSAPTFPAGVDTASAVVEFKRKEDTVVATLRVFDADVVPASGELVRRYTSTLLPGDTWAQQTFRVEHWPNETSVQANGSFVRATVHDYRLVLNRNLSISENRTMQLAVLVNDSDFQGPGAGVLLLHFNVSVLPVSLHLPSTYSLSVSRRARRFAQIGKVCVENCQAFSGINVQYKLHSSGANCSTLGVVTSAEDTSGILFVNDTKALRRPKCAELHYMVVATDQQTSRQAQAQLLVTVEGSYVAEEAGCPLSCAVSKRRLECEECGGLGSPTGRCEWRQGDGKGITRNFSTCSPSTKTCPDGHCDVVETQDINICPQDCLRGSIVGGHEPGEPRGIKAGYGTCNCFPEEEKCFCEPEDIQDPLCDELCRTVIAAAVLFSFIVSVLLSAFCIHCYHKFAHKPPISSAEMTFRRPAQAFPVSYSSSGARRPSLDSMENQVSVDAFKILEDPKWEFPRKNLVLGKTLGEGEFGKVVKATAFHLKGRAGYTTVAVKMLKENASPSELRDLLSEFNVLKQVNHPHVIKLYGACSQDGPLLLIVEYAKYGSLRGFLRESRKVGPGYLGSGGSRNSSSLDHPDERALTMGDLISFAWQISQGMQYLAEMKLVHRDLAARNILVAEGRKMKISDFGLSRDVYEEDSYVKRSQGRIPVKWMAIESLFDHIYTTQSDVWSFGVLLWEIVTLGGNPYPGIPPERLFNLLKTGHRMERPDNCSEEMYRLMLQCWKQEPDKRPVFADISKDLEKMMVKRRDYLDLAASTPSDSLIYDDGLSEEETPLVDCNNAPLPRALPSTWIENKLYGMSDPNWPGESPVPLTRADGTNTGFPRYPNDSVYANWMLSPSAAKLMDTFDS
Casein kinase I isoform alpha, sequence (P48729 whole entry, canonical isoform): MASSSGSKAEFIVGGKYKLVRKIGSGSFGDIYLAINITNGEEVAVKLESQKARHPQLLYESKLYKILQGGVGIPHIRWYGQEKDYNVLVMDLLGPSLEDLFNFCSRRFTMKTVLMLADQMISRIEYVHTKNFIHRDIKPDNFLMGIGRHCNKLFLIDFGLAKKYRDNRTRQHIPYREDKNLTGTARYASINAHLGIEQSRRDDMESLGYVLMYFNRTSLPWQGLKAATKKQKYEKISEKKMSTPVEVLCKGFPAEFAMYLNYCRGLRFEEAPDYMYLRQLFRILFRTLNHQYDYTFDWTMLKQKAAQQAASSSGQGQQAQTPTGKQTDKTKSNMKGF

Question: For `C[C@@H]1C[C@H]1C(=O)N1CCN(c2cnc(C#N)c(-c3cnn(C)c3)n2)C[C@H]1C`, which inhibition [1] is on record?
Answer: 18%

Question: What about the IC50 [2] of the same molecule?
Answer: > 100 µM

Question: What about the IC50 [3] of the same molecule?
Answer: > 100 µM

Question: And the IC50 (Ephrin type-A receptor 4)?
Answer: > 100 µM

Question: And the inhibition [4]?
Answer: 0%

Question: What about the IC50 [5] of the same molecule?
Answer: > 100 µM

Question: And the IC50 [6]?
Answer: > 100 µM

Question: And the IC50 [7]?
Answer: > 100 µM

Question: And the inhibition [8]?
Answer: 17%

Question: What about the IC50 [9] of the same molecule?
Answer: > 100 µM

Question: What about the inhibition [10] of the same molecule?
Answer: 5%

Question: And the IC50 [11]?
Answer: > 100 µM

Question: What about the IC50 (Ephrin type-B receptor 1) of the same molecule?
Answer: 37.7 µM

Question: And the IC50 [12]?
Answer: > 100 µM

Question: What about the IC50 [13] of the same molecule?
Answer: > 100 µM

Question: What about the inhibition [14] of the same molecule?
Answer: -1%

Question: And the IC50 [15]?
Answer: > 100 µM

Question: What about the IC50 [16] of the same molecule?
Answer: 39.6 µM

Question: What about the inhibition [17] of the same molecule?
Answer: -1%

Question: And the IC50 [18]?
Answer: > 100 µM

Question: What about the IC50 [19] of the same molecule?
Answer: > 100 µM

Question: And the IC50 [20]?
Answer: > 100 µM

Question: What about the IC50 [21] of the same molecule?
Answer: > 100 µM

Question: And the inhibition (Rattus norvegicus)?
Answer: 34%

Question: What about the IC50 [22] of the same molecule?
Answer: 13.7 µM
